Measurements: patent publication US6831069B2, “Pyrrolo[2,3-d]pyrimidine nucleoside analogs” (priority 1999, dated 2004)
Where “and” joins values, the source holds several entries; their conditions need not be identical. Equal values may be shown once. Read-outs that look alike come from different tables or passages of the source.

Key:
[1] = tested on: activated human T cells; experiment: Analysis of cytokine mRNA (RT-PCR, Southern blot) in PMA-ION activated human T cells; type: cell-based
[2] = tested on: PMA/ionomycin stimulated T cell; experiment: Extracellular cytokine levels (ELISA) in PMA/ionomycin activated human T cells, 0 or 10 μM nucleoside; type: cell-based; conditions: 48 h, 5 human donors, of activated control level
[3] = tested on: BALB/c mice; experiment: Contact hypersensitivity (CHS) to DNFB; type: in vivo, mouse; conditions: for mean decrease in ear thickness (inhibition of CHS): 24 h post-challenge
Procedure: Reactivity to the contact allergen, DNFB, was determined, in BALB/c mice, as previously described (Ishii, N., K. Takahashi, H. Nakajima, S. Tanaka, P. W. Askenase. 1994. DNFB contact sensitivity (CS) in BALB/c and C3H/He mice. J. Invest. Dermatol. 102:321). Briefly, mice were sensitized by application of 20 μl of 0.3% DNFB in acetone: olive oil, 4:1 onto the shaved abdomens of naive mice. For optimal elicitation of CHS, the mice were challenged on both sides of each ear with 20 μl of 0.12% DNFB, five days after sensitization. Unsensitized mice were also challenged and used as controls in each experiment. After 24 h, ear thickness measurements were taken and response to DNFB was assessed by subtracting […]. Where indicated, 7-β-D-ribofuranosyl-4-oxopyrrolo-[2,3-d]pyrimidine-5-carboxamidine, at a dose of 6.2 μg in 50 μl PBS (0.3 mg/kg) or 12.4 μg in 100 μl PBS (0.6 mg/kg), was administered by i.p. injection at the time of challenge with DNFB. These doses of 7-β-D-ribofuranosyl-4-oxopyrrolo[2,3-d]pyrimidine-5-carboxamidine gave maximal effect in preliminary optimization studies. Following final ear thickness measurements, mice were sacrificed by cervical dislocation and axillary/lateral axillary lymph nodes were removed. Following isolation of total cellular RNA from isolated lymph node cells, RT-PCR and Southern Blot analyses were performed to monitor for mouse IFNg, IL-2, and IL-10 mRNA levels.
Total cellular RNA was extracted using Trizol reagent (Life Technologies, Gaithersburg, Md.). The cDNA synthesis reaction was performed using oligo (dT)12-18 primer and Superscript II (Life Technologies) reverse transcriptase. The PCR reaction (GeneAmp PCR kit, Perkin-Elmer, Foster City, Calif.) consisted of a 50 μl mixture containing cDNA, dNTPs (each at 200 μM), 0.5 μM of each primer pair and 1.25 unit of Taq polymerase. The primers for human IL-2, IL-10, IL-4, IL-6, IL-1b, IFNg, c-myc, IL-2R, CD40L (Stratagene, La Jolla, Calif.), iNOS (Clontech, Palo Alto, Calif.) and pHE7 ribosomal gene were used. Typical amplification conditions included a 5-minute denaturation at 94° C. and a 5 minute annealing at 60° C. followed by 35 cycles of 1.5 min at 72° C., 45 sec at 94° C. and 45 sec at 60° C., with a final extension time of 10 min at 72° C. The primers for mouse IL-2, IFNγ, and β-actin were obtained from Stratagene and mouse IL-10 from Clontech. Amplification conditions for the Stratagene mouse cytokine primers were a 5 min denaturation at 94° C. and a 5 min annealing at 60° C. followed by 35 cycles of 1.5 min at 72° C., 45 sec at 94° C. and 45 sec at 60° C., with a final extension time of 10 min at 72° C. For IL-10, the PCR conditions were a 5-minute denaturation at 94° C. followed by 35 cycles of 45 sec at 94° C., 45 sec at 60° C. and 2 min at 72° C., with a final extension time of 7 min at 72° C.
For each gene product, the optimum cDNA dilution was determined experimentally and was defined as the cDNA dilution that would achieve a detectable concentration that was well below saturating conditions. […] Equivalent loading was assessed following hybridization with a probe generated from pHE7 sense primer. Washed blots were then analyzed using a Phosphorimager (Biorad, Richmond, Calif.). Relative changes in cytokine or other test mRNA were presented as densitometric readings and normalized for any variations in input RNA by determining the densitometric ratio of mRNA of interest relative to mRNA of the housekeeping gene, pHE7.

[4] = tested on: activated peripheral human T cells; experiment: Extracellular cytokine analyses (ELISA) in PMA-ION activated peripheral human T cells; type: cell-based; set-up: secreted IL-4, increase over activated control / IFNγ, decrease over activated control: concentration or dose not given beside the values; conditions: for heightened IL-4 production / reduced levels of secreted IFNγ: PMA-ION; for IFNγ, decrease over activated control / secreted IL-4, increase over activated control: 48 h PMA-ION
[5] = tested on: PHA activated PBMC; experiment: ELISA spot assay, number of cytokine producing cells; type: cell-based, human; conditions: 10 μM
[6] = tested on: BALB/c mice; conditions: mouse, in vivo
[7] = 10 μM, T cells from normal donors and RA patients
[8] = 2, 5 or 10 μM, 6 h or 24 h, PMA-ION, representative of three donors
[9] = pro-/anti-inflammatory mediator study, FIG. 18
[10] = lymph node cells, DNFB-primed mice
[11] = 10 μM, 48 h, representative of five donors
[12] = 10 μM, T cells of 16 RA patients
[13] = 10 μM, T cells of 16 normal donors

N=C(N)c1cn([C@@H]2O[C@H](CO)[C@@H](O)[C@H]2O)c2nc[nH]c(=O)c12 [ICN 10776, 7-β-D-ribofuranosyl-4-oxopyrrolo-[2,3-d]pyrimidine-5-carboxamidine] was tested. Which “IFNγ mRNA levels” value [1, 7] did it give?
The value was “suppressed”.

What about the “IL-4 mRNA levels” value [1, 7] of the same compound?
The value was “elevated”.

And the “TNFα mRNA levels” value [1, 7]?
The value was “suppressed”.

What about the “IFNγ mRNA” value [1, 8] of the same compound?
Its value is “concomitant decrease”.

And the “IL-4 mRNA” value [1, 8]?
Its value is “increase in IL-4 mRNA”.

And the “TNFα mRNA” value [1, 8]?
The value was “concomitant decrease”.

And the “IFNγ mRNA” value [1, 9]?
The value was “suppression”.

What about the “IL-1β mRNA” value [1, 9] of the same compound?
Its value is “suppressed”.

And the “IL-2 mRNA” value [1, 9]?
The value was “suppression”.

And the “IL-4 mRNA” value [1, 9]?
The value was “enhancement”.

And the “IL-6 mRNA” value [1, 9]?
Its value is “suppressed”.

And the “IL-10 mRNA” value [1, 9]?
The value was “enhancement of IL-10”.

And the “TNFα mRNA” value [1, 9]?
Its value is “suppression”.

What about the c-myc expression [1, 9] of the same compound?
Its c-myc expression is “suppression”.

And the “inducible nitric oxide synthase (iNOS) expression” value [1, 9]?
Its value is “reduction”.

And the “enhanced activated IL-4 production” value [2]?
The value was 498%±83.

And the “suppressed IFNγ” value [2]?
Its value is 43%±4.

And the “mean decrease in ear thickness (inhibition of CHS)” value ([3]; 0.3 mg/kg i.p. at time of challenge)?
Its value is 42%.

And the “mean decrease in ear thickness (inhibition of CHS)” value ([3]; 0.6 mg/kg i.p. at time of challenge)?
The value was 68%.

And the “IFNγ mRNA levels” value [3, 10]?
Its value is “substantially reduced”.

And the “IL-2 mRNA levels” value [3, 10]?
Its value is “substantially reduced”.

And the “murine IL-10 mRNA expression” value [3, 10]?
Its value is “greatly enhanced”.

And the “peak enhancement of PMA-ION-induced IL-4 level” value [4, 11]?
The value was 166%.

What about the “peak enhancement of PMA-ION-induced IL-5 level” value [4, 11] of the same compound?
Its value is 77%.

What about the “heightened IL-4 production” value [4, 12] of the same compound?
The value was 192%.

And the “reduced levels of secreted IFNγ” value [4, 12]?
Its value is 63%.

And the “heightened IL-4 production” value [4, 13]?
The value was 266%.

And the “reduced levels of secreted IFNγ” value [4, 13]?
The value was 43%.

And the “peak suppression of PMA-ION-induced IFNγ level” value ([4]; 20 μM, 48 h)?
The value was 72%.

And the “peak suppression of PMA-ION-induced IL-2 level” value ([4]; 20 μM, 48 h)?
Its value is 62%.

What about the “peak suppression of PMA-ION-induced TNFα level” value ([4]; 20 μM, 48 h) of the same compound?
Its value is 78%.

And the “IFNγ, decrease over activated control” value ([4]; CD4+ T cells)?
Its value is 81%.

What about the “secreted IL-4, increase over activated control” value (“secreted IL-4, increase” for short) ([4]; CD4+ T cells) of the same compound?
The value was 994%.

What about the “IFNγ, decrease over activated control” value ([4]; CD8+ T cells) of the same compound?
Its value is 37%.

And the “secreted IL-4, increase” value ([4]; CD8+ T cells)?
Its value is 228%.

What about the “IFNγ, decrease over activated control” value ([4]; total T cells) of the same compound?
Its value is 52%.

What about the “secreted IL-4, increase” value ([4]; total T cells) of the same compound?
Its value is 320%.

What about the “number of IL-2-producing cells” value ([5]; 24 h) of the same compound?
The value was “dramatic fall”.

What about the “number of IFNγ-producing cells” value ([5]; 48 h) of the same compound?
Its value is “dramatic fall”.

And the “number of IL-4 producing cells” value ([5]; 48 h)?
The value was “substantial increase”.

And the “number of IL-5 producing cells” value ([5]; 48 h)?
The value was “substantial increase”.

And the “IFNγ mRNA levels” value [6]?
The value was “substantially reduced”.

And the “mean decrease in serum nitrite levels” value [6]?
The value was 54% and 78%.

What about the “murine IL-10 mRNA expression” value [6] of the same compound?
The value was “greatly enhanced”.
